In US20070237756A1, “Antimicrobial preparations” (PURAC BIOCHEM B.V., priority 2006, published 2007):

How the values were obtained:
[1] = system: Salmonella enterica (ATCC 13311); conditions: broth cultures, to a concentration of 100 mM, single amino acid
[2] = system: Salmonella typhimurium ATCC 13311; test: Growth in inoculated milk at 12° C., plate count; assay type: cell-based; conditions: non-fat milk; for CFU/ml, day 0: 0 days; for CFU/ml, day 2: 2 days; for CFU/ml, day 4: 4 days; for CFU/ml, day 6: 6 days
Procedure: Stock cultures of Salmonella typhimurium ATCC 13311 and Escherichia coli O157:H7 ATCC 700728 which were used to inoculate liquid cultures were routinely kept on agar plates containing brain heart infusion (Oxoid CM225, Basingstoke, United Kingdom) fortified with 1.5% agar. […] Just prior to the inoculation of the foods the cultures were diluted with a solution containing 0.1% peptone and 0.85% NaCl.
Sterile non-fat milk was obtained from a local supermarket. Appropriate quantities of amino acids were added.
Milk was cooled to 10° C. and subsequently inoculated with an appropriately diluted culture of Salmonella typhimurium. Inoculated milk samples were incubated at 12° C.
The microbial analysis of the food samples was done as follows: A sealing bag was opened and to this were added 2 times the net weight of sterile dilution fluid ([…] and 0.1% (w/v) bacteriological peptone). Samples were homogenized for 1 min in a Stomacher 400 lab blender (Seward Medical, London, England) and 50 μl of the homogenate were plated on a suitable agar medium using an Eddyjet type 1.23 spiral plater (IUL Instruments, Barcelona, Spain). Escherichia coli 0157:H7 and Salmonella typhimurium were plated on VRBG agar (Oxoid, CM0485, Basingstoke, United Kingdom). Plates were incubated for 24 hours at 30° C. and then counted.
The effect of single additions of glycine, DL-alanine and a mixture of glycine (0.67%) and DL-alanine (0.8%) on the growth of Salmonella typhimurium in milk at 12° C. is given in Table I: […]

## CC(N)C(=O)O (racemic) [DL-alanine]
[1]
  effect on the growth rate of Salmonella typhimurium: little or no effect
[2]
  CFU/ml, day 0: 5 · 10^3 CFU/ml
  CFU/ml, day 2: 5 · 10^4 CFU/ml
  CFU/ml, day 4: 4 · 10^5 CFU/ml
  CFU/ml, day 6: 1 · 10^5 CFU/ml

## NCC(=O)O [glycine]
[1]
  effect on the growth rate of Salmonella typhimurium: little or no effect
[2]
  CFU/ml, day 0: 5 · 10^3 CFU/ml
  CFU/ml, day 2: 5 · 10^4 CFU/ml
  CFU/ml, day 4: 1 · 10^5 CFU/ml
  CFU/ml, day 6: 8 · 10^4 CFU/ml
